Laboratory results from the NIST ThermoML archive (doi:10.1016/j.jct.2015.01.004).
Where “and” joins values, the source holds several entries; their conditions need not be identical. Identical values can stand only once.

Test: molar heat capacity at constant pressure; xn = mol fraction of the nth substance listed
Conditions: 100 kPa

[Si] [silicon] + [Li]
Conditions	molar heat capacity at constant pressure
298.15 K, Crystal of intercomponent compound 2, relaxation calorimetry + DSC, x2 = 0.804	22.75 J/K/mol
298.32 K, Crystal of intercomponent compound 1, relaxation calorimetry, x2 = 0.81	21.66 J/K/mol
298.33 K, Crystal of intercomponent compound 2, relaxation calorimeter, x2 = 0.804	22.58 J/K/mol
300 K, Crystal of intercomponent compound 1, relaxation calorimetry + DSC, x2 = 0.81	22.58 J/K/mol
300 K, Crystal of intercomponent compound 2, relaxation calorimetry + DSC, x2 = 0.804	22.79 J/K/mol
302.31 K, Crystal of intercomponent compound 1, relaxation calorimetry, x2 = 0.81	21.75 J/K/mol
302.34 K, Crystal of intercomponent compound 2, relaxation calorimeter, x2 = 0.804	22.69 J/K/mol
304.67 K, Crystal of intercomponent compound 2, Small sample (50 mg) DSC, x2 = 0.804	23.11 J/K/mol and 23.16 J/K/mol
304.7 K, Crystal of intercomponent compound 1, Small sample (50 mg) DSC, x2 = 0.81	22.87 J/K/mol and 22.84 J/K/mol
304.7 K, Crystal of intercomponent compound 2, Small sample (50 mg) DSC, x2 = 0.804	23.05 J/K/mol
304.87 K, Crystal of intercomponent compound 1, Small sample (50 mg) DSC, x2 = 0.81	22.81 J/K/mol
304.88 K, Crystal of intercomponent compound 1, Small sample (50 mg) DSC, x2 = 0.81	22.77 J/K/mol
314.59 K, Crystal of intercomponent compound 2, Small sample (50 mg) DSC, x2 = 0.804	23.41 J/K/mol and 23.55 J/K/mol
314.61 K, Crystal of intercomponent compound 1, Small sample (50 mg) DSC, x2 = 0.81	23.01 J/K/mol and 23.1 J/K/mol
314.61 K, Crystal of intercomponent compound 2, Small sample (50 mg) DSC, x2 = 0.804	23.42 J/K/mol
314.8 K, Crystal of intercomponent compound 1, Small sample (50 mg) DSC, x2 = 0.81	22.99 J/K/mol
314.81 K, Crystal of intercomponent compound 1, Small sample (50 mg) DSC, x2 = 0.81	22.91 J/K/mol
320 K, Crystal of intercomponent compound 1, relaxation calorimetry + DSC, x2 = 0.81	23.07 J/K/mol
320 K, Crystal of intercomponent compound 2, relaxation calorimetry + DSC, x2 = 0.804	23.22 J/K/mol
324.51 K, Crystal of intercomponent compound 2, Small sample (50 mg) DSC, x2 = 0.804	23.8 J/K/mol and 23.85 J/K/mol
324.52 K, Crystal of intercomponent compound 1, Small sample (50 mg) DSC, x2 = 0.81	23.19 J/K/mol and 23.22 J/K/mol
324.52 K, Crystal of intercomponent compound 2, Small sample (50 mg) DSC, x2 = 0.804	23.8 J/K/mol
324.71 K, Crystal of intercomponent compound 1, Small sample (50 mg) DSC, x2 = 0.81	23.19 J/K/mol
324.72 K, Crystal of intercomponent compound 1, Small sample (50 mg) DSC, x2 = 0.81	23.11 J/K/mol
334.42 K, Crystal of intercomponent compound 2, Small sample (50 mg) DSC, x2 = 0.804	24.09 J/K/mol and 24.14 J/K/mol
334.43 K, Crystal of intercomponent compound 2, Small sample (50 mg) DSC, x2 = 0.804	24.12 J/K/mol
334.44 K, Crystal of intercomponent compound 1, Small sample (50 mg) DSC, x2 = 0.81	23.32 J/K/mol and 23.34 J/K/mol
334.63 K, Crystal of intercomponent compound 1, Small sample (50 mg) DSC, x2 = 0.81	23.4 J/K/mol
334.64 K, Crystal of intercomponent compound 1, Small sample (50 mg) DSC, x2 = 0.81	23.38 J/K/mol
340 K, Crystal of intercomponent compound 1, relaxation calorimetry + DSC, x2 = 0.81	23.51 J/K/mol
340 K, Crystal of intercomponent compound 2, relaxation calorimetry + DSC, x2 = 0.804	23.65 J/K/mol
344.33 K, Crystal of intercomponent compound 2, Small sample (50 mg) DSC, x2 = 0.804	24.3 J/K/mol and 24.38 J/K/mol
344.35 K, Crystal of intercomponent compound 1, Small sample (50 mg) DSC, x2 = 0.81	23.65 J/K/mol and 23.63 J/K/mol
344.35 K, Crystal of intercomponent compound 2, Small sample (50 mg) DSC, x2 = 0.804	24.37 J/K/mol
344.54 K, Crystal of intercomponent compound 1, Small sample (50 mg) DSC, x2 = 0.81	23.6 J/K/mol
344.55 K, Crystal of intercomponent compound 1, Small sample (50 mg) DSC, x2 = 0.81	23.53 J/K/mol
354.24 K, Crystal of intercomponent compound 2, Small sample (50 mg) DSC, x2 = 0.804	24.56 J/K/mol and 24.6 J/K/mol
354.26 K, Crystal of intercomponent compound 1, Small sample (50 mg) DSC, x2 = 0.81	23.98 J/K/mol and 23.97 J/K/mol
354.26 K, Crystal of intercomponent compound 2, Small sample (50 mg) DSC, x2 = 0.804	24.57 J/K/mol
354.45 K, Crystal of intercomponent compound 1, Small sample (50 mg) DSC, x2 = 0.81	23.8 J/K/mol
354.46 K, Crystal of intercomponent compound 1, Small sample (50 mg) DSC, x2 = 0.81	23.72 J/K/mol
360 K, Crystal of intercomponent compound 1, relaxation calorimetry + DSC, x2 = 0.81	23.91 J/K/mol
360 K, Crystal of intercomponent compound 2, relaxation calorimetry + DSC, x2 = 0.804	24.08 J/K/mol
364.16 K, Crystal of intercomponent compound 2, Small sample (50 mg) DSC, x2 = 0.804	24.81 J/K/mol and 24.83 J/K/mol
364.17 K, Crystal of intercomponent compound 1, Small sample (50 mg) DSC, x2 = 0.81	24.15 J/K/mol and 24.13 J/K/mol
364.17 K, Crystal of intercomponent compound 2, Small sample (50 mg) DSC, x2 = 0.804	24.69 J/K/mol
364.36 K, Crystal of intercomponent compound 1, Small sample (50 mg) DSC, x2 = 0.81	24.02 J/K/mol
364.37 K, Crystal of intercomponent compound 1, Small sample (50 mg) DSC, x2 = 0.81	23.91 J/K/mol
374.07 K, Crystal of intercomponent compound 2, Small sample (50 mg) DSC, x2 = 0.804	24.83 J/K/mol and 24.87 J/K/mol and 24.94 J/K/mol
374.08 K, Crystal of intercomponent compound 1, Small sample (50 mg) DSC, x2 = 0.81	24.33 J/K/mol and 24.27 J/K/mol
374.28 K, Crystal of intercomponent compound 1, Small sample (50 mg) DSC, x2 = 0.81	24.24 J/K/mol and 24.13 J/K/mol
380 K, Crystal of intercomponent compound 1, relaxation calorimetry + DSC, x2 = 0.81	24.29 J/K/mol
380 K, Crystal of intercomponent compound 2, relaxation calorimetry + DSC, x2 = 0.804	24.51 J/K/mol
383.99 K, Crystal of intercomponent compound 2, Small sample (50 mg) DSC, x2 = 0.804	25.05 J/K/mol
384.19 K, Crystal of intercomponent compound 1, Small sample (50 mg) DSC, x2 = 0.81	24.35 J/K/mol
384.2 K, Crystal of intercomponent compound 1, Small sample (50 mg) DSC, x2 = 0.81	24.46 J/K/mol
393.9 K, Crystal of intercomponent compound 2, Small sample (50 mg) DSC, x2 = 0.804	25.16 J/K/mol and 25.27 J/K/mol
394.11 K, Crystal of intercomponent compound 1, Small sample (50 mg) DSC, x2 = 0.81	24.46 J/K/mol
394.12 K, Crystal of intercomponent compound 1, Small sample (50 mg) DSC, x2 = 0.81	24.68 J/K/mol
400 K, Crystal of intercomponent compound 1, relaxation calorimetry + DSC, x2 = 0.81	24.63 J/K/mol
400 K, Crystal of intercomponent compound 2, relaxation calorimetry + DSC, x2 = 0.804	24.94 J/K/mol
403.81 K, Crystal of intercomponent compound 2, Small sample (50 mg) DSC, x2 = 0.804	25.3 J/K/mol and 25.35 J/K/mol
404.02 K, Crystal of intercomponent compound 1, Small sample (50 mg) DSC, x2 = 0.81	24.57 J/K/mol
404.03 K, Crystal of intercomponent compound 1, Small sample (50 mg) DSC, x2 = 0.81	25.01 J/K/mol
413.73 K, Crystal of intercomponent compound 2, Small sample (50 mg) DSC, x2 = 0.804	25.46 J/K/mol and 25.49 J/K/mol
413.94 K, Crystal of intercomponent compound 1, Small sample (50 mg) DSC, x2 = 0.81	24.68 J/K/mol and 25.12 J/K/mol
420 K, Crystal of intercomponent compound 1, relaxation calorimetry + DSC, x2 = 0.81	24.96 J/K/mol
420 K, Crystal of intercomponent compound 2, relaxation calorimetry + DSC, x2 = 0.804	25.37 J/K/mol
423.64 K, Crystal of intercomponent compound 2, Small sample (50 mg) DSC, x2 = 0.804	25.57 J/K/mol and 25.65 J/K/mol
423.85 K, Crystal of intercomponent compound 1, Small sample (50 mg) DSC, x2 = 0.81	24.68 J/K/mol
423.86 K, Crystal of intercomponent compound 1, Small sample (50 mg) DSC, x2 = 0.81	25.12 J/K/mol
433.56 K, Crystal of intercomponent compound 2, Small sample (50 mg) DSC, x2 = 0.804	25.68 J/K/mol and 25.75 J/K/mol
433.76 K, Crystal of intercomponent compound 1, Small sample (50 mg) DSC, x2 = 0.81	25.01 J/K/mol
433.77 K, Crystal of intercomponent compound 1, Small sample (50 mg) DSC, x2 = 0.81	25.23 J/K/mol
440 K, Crystal of intercomponent compound 1, relaxation calorimetry + DSC, x2 = 0.81	25.28 J/K/mol
440 K, Crystal of intercomponent compound 2, relaxation calorimetry + DSC, x2 = 0.804	25.8 J/K/mol
443.48 K, Crystal of intercomponent compound 2, Small sample (50 mg) DSC, x2 = 0.804	25.83 J/K/mol and 25.95 J/K/mol
443.67 K, Crystal of intercomponent compound 1, Small sample (50 mg) DSC, x2 = 0.81	25.01 J/K/mol
443.69 K, Crystal of intercomponent compound 1, Small sample (50 mg) DSC, x2 = 0.81	25.56 J/K/mol
453.39 K, Crystal of intercomponent compound 2, Small sample (50 mg) DSC, x2 = 0.804	25.96 J/K/mol and 26.21 J/K/mol
453.59 K, Crystal of intercomponent compound 1, Small sample (50 mg) DSC, x2 = 0.81	25.01 J/K/mol
